Data published in US20220009914A1, “Analogs of Nitrofuran Antibiotics to Combat Resistance” (The Trustees of Indiana University, priority 2020, published 2022).
Read-outs that look alike come from different tables or passages of the source.

Columns and labels:
[1] = test system: Acinetobacter baumannii strain 2208 (ATCC 19606); experiment: bacterial proliferation assay, A. baumannii; type: cell-based; settings: ATCC19606, read-out: Bacterial Proliferation EC50 A. baumannii
Description: All compounds were evaluated for inhibiting the proliferation of E. coli and each of the ESKAPE bacteria. Results presented represent the averages of EC50 values obtained from at least four replicates. Evaluating compounds for inhibition of bacterial cell proliferation.
Growth Media: E. coli were grown with LB medium and all ESKAPE bacteria were grown in Brain Heart Infusion (BHI) medium (Becton, Dickinson and Company), with all liquid cultures supplemented with 25 mg/L Ca^2+ and 12.5 mg/L Mg^2+ to mimic physiological free concentrations of these cations. A 10 mg/mL Ca^2+ stock solution was prepared by dissolving 1.84 g of CaCl2.2H2O in 50 mL of deionized water, and a 10 mg/mL Mg^2+ stock solution was prepared by dissolving 4.18 g of MgCl2.6H2O in 50 mL deionized water—filter sterilized using 0.2 μm cellulose-acetate filters. 2.5 mL of the sterile 10 mg/mL Ca^2+ stock and 1.25 mL of the sterile 10 mg/mL Mg^2+ stock solutions were added per 1 L of autoclaved LB or BHI media to obtain 25 mg/L Ca^2+ and 12.5 mg/L Mg^2+ ions, respectively.
General Assay Protocol: Stock bacterial cultures were streaked onto LB or BHI agar plates and grown overnight at 37° C. Fresh aliquots of cation supplemented media were inoculated with single bacterial colonies and the cultures were grown overnight at 37° C. with shaking (240 rpm). The following morning, cultures were diluted 10-fold into fresh media and grown at 37° C. until bacteria had reached mid-log phase growth (OD600˜0.4-0.6). The cultures were then diluted into fresh media to achieve final OD600 readings of 0.017. Aliquots of these diluted cultures (30 μL) were added to clear, flat-bottom 384-well polystyrene plates that were previously stamped with 0.5 μL of test compounds in 20 μL of media (yielding initial OD600=0.01 bacterial cultures). All compounds were tested in dose-response with concentration ranges during the proliferation assays from 100 μM to 46 nM (3-fold dilution series). A second set of baseline control plates were prepared analogously, but without any bacteria added, to correct for possible compound absorbance and/or precipitation. […] Plates were then read at 600 nm using a Molecular Devices SpectraMax Plus384 microplate reader. […] Results presented represent the averages of EC50 values obtained from at least four replicates.
Evaluating analogs for inhibiting the growth of E. coli and the ESKAPE bacteria. Analogs were initially tested for antibacterial efficacy against representative strains of antibiotic-sensitive E. coli and the ESKAPE bacteria. To determine compound efficacy, bacterial proliferation assays were carried out in liquid media culture supplemented with physiological concentrations of free calcium and magnesium cations. For these assays, bacterial cultures (OD600=0.01) were exposed to test compounds in 8-point, 3-fold dilution series (100 μM to 46 nM concentration range), in 384-well plates. After addition of compounds to cultures, the plates were sealed with Breathe-Easy gas permeable membranes and allowed to grow to mid-log phase (OD600˜0.4-0.6), whereupon final OD600 readings were taken to assess for bacterial growth and inhibition.

E. coli GroEL/ES = molecular target: T1, E. coli GroEL/ES (Escherichia coli, UniProt P0A6F5); experiment: GroEL/ES-mediated dMDH refolding assay; type: biochemical
T1 construct: made in house; host or cells: GroEL in NEB 5-alpha E. coli; GroES in E. coli BL21 (DE3)
Description: Evaluating compounds for inhibition in the GroEL/ES-mediated dMDH refolding assay. All compounds were evaluated for inhibiting E. coli GroEL/ES-mediated refolding of the denatured MDH reporter enzyme. Reagent preparation: For these assays, four primary reagent stocks were prepared: 1) GroEL/ES-dMDH binary complex stock; 2) ATP initiation stock; 3) EDTA quench stock; 4) MDH enzymatic assay stock. Denatured MDH (dMDH) was prepared by 2-fold dilution of MDH (5 mg/ml, soluble pig heart MDH from Roche, product #10127248001) with denaturant buffer (7 M guanidine-HCl, 200 mM Tris, pH 7.4, and 50 mM DTT). MDH was completely denatured by incubating at room temperature for >45 min. The binary complex solutions were prepared by slowly adding the dMDH stock to a stirring stock with GroEL and GroES in folding buffer (50 mM Tris-HCl, pH 7.4, 50 mM KCl, 10 mM MgC2, and 1 mM DTT). […] For the ATP initiation stock, ATP solid was diluted into folding buffer to a final concentration of 2.5 mM. Quench solution contained 600 mM EDTA (pH 8.0). The MDH enzymatic assay stock consisted of 20 mM sodium mesoxalate and 1.6 mM NADH in reaction buffer (50 mM Tris-HCl, pH 7.4, 50 mM KCl, and 1 mM DTT).
Assay Protocol: First, 30 μL aliquots of the GroEL/ES-dMDH binary complex stocks were dispensed into clear, 384-well polystyrene plates. […] The chaperonin-mediated refolding cycles were initiated by addition of 20 μL of ATP stock (reagent concentrations during refolding cycle: 50 nM GroEL, 60 nM GroES, 12 nM dMDH, 1 mM ATP, and compounds of 100 μM to 46 nM, 3-fold dilution series) and the refolding reactions were incubated at 37° C. […] Next, the assay was quenched by addition of 10 μL of the EDTA stock to give a final concentration of 100 mM in the wells. […] A340 nm measurements were recorded at 0.5 minutes (start point) and at successive time points until the amount of NADH consumed reached ˜90% (end point, generally between 20-35 minutes).
Evaluating analogs for inhibiting GroEL/ES-mediated substrate refolding functions. […] We first evaluated all test compounds in our standard GroEL/ES-mediated refolding assays that employ either malate dehydrogenase (MDH) or rhodanese (Rho) as the denatured substrate reporter enzymes. When denatured, these enzymes are efficiently folded by GroEL/ES in the absence of inhibitors, and thus act as reporters to determine the degree of inhibition against the bacterial chaperonin system. Inhibition was examined in the presence of these two orthogonal substrates in order to support that GroEL/ES inhibitors were on-target. To further support on-target effects against GroEL/ES, we counter-screened for inhibition of the native MDH and Rho enzymatic reporter reactions, where test compounds were added after the denatured MDH and Rho substrate enzymes were completely refolded by GroEL/ES.

[2] = without NfsB nitroreductase, read-out: GroEL/ES-dMDH Refolding IC50

T1 sequence (P0A6F5 2-548): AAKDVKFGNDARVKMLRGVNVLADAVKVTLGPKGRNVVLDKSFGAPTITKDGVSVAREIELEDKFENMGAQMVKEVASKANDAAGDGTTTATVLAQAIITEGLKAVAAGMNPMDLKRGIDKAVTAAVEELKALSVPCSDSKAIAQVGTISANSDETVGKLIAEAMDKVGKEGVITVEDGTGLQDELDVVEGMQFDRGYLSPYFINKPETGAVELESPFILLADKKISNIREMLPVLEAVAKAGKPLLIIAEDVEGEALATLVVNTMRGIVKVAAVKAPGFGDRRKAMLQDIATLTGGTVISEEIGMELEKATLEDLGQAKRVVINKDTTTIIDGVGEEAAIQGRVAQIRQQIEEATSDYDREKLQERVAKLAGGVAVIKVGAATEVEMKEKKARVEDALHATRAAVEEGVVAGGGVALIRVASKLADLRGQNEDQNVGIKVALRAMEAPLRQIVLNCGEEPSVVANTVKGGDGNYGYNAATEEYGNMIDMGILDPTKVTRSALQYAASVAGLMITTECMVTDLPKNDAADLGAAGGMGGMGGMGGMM

Compound	EC50 [1]	IC50 (E. coli GroEL/ES)	IC50 (E. coli GroEL/ES; [2])	GroEL/ES inhibition in words (E. coli GroEL/ES; standard dMDH and dRho refolding assays, no nitroreductase)
O=C(N/N=C/c1ccc(O)c2ncccc12)c1ccccc1Oc1ccccc1 [Compound 10, N′-((8-hydroxyquinolin-5-yl)methylene)-2-phenoxybenzohydrazide]	> 100 µM	15 µM		
O=C(N/N=C/c1ccc(O)c2ncccc12)c1ccc(NS(=O)(=O)c2cccs2)cc1 [Compound 13, N-(4-(2-((8-hydroxyquinolin-5-yl)methylene)hydrazine-1-carbonyl)phenyl)thiophene-2-sulfonamide]	> 100 µM	3.2 µM		
CN(C)c1ccc(C(=O)N/N=C/c2ccc(O)c3ncccc23)cc1 [Compound 8, 4-(dimethylamino)-N′-((8-hydroxyquinolin-5-yl)methylene)benzohydrazide]	> 100 µM	27 µM		
COc1ccc(C(=O)N/N=C/c2cccc3ncccc23)cc1 [Compound 31, 4-methoxy-N′-(quinolin-5-ylmethylene)benzohydrazide]	> 100 µM	> 100 µM		
COc1ccc(C(=O)N/N=C/c2ccc(O)c3ncccc23)cc1 [Compound 1, N′-((8-hydroxyquinolin-5-yl)methylene)-4-methoxybenzohydrazide]	> 100 µM	77 µM		
O=C(N/N=C/c1ccc(O)c2ncccc12)c1cccc2ccccc12 [Compound 9, N′-((8-hydroxyquinolin-5-yl)methylene)-1-naphthohydrazide]	> 100 µM	13 µM		
CCN(CC)S(=O)(=O)c1cccc(C(=O)N/N=C/c2ccc(O)c3ncccc23)c1 [Compound 12, N,N-diethyl-3-(2-((8-hydroxyquinolin-5-yl)methylene)hydrazine-1-carbonyl)benzenesulfonamide]	> 100 µM	19 µM		
COc1ccc(C(=O)N/N=C/c2ccc([N+](=O)[O-])o2)cc1 [Compound 20, 4-methoxy-N′-((5-nitrofuran-2-yl)methylene)benzohydrazide]	> 100 µM		69 µM	
CCN(CC)S(=O)(=O)c1cccc(C(=O)N/N=C/c2ccc([N+](=O)[O-])o2)c1 [Compound 25, N,N-diethyl-3-(2-((5-nitrofuran-2-yl)methylene)hydrazine-1-carbonyl)benzenesulfonamide]	> 100 µM	90 µM		
O=C(N/N=C/c1ccc([N+](=O)[O-])o1)c1cccs1 [Compound 16, N′-((5-nitrofuran-2-yl)methylene)thiophene-2-carbohydrazide]	82 µM			
CN(C)c1ccc(C(=O)N/N=C/c2ccc([N+](=O)[O-])o2)cc1 [Compound 21, 4-(dimethylamino)-N′-((5-nitrofuran-2-yl)methylene)benzohydrazide]	> 100 µM		26 µM	generally the most potent GroEL/ES inhibitors
O=C(N/N=C/c1ccc([N+](=O)[O-])o1)c1ccncc1 [Compound 19, N′-((5-nitrofuran-2-yl)methylene)isonicotinohydrazide]	54 µM			
O=C(N/N=C/c1ccc([N+](=O)[O-])o1)c1ccc(NS(=O)(=O)c2cccs2)cc1 [Compound 26, N-(4-(2-((5-nitrofuran-2-yl)methylene)hydrazine-1-carbonyl)phenyl)thiophene-2-sulfonamide]	> 100 µM	> 100 µM		
O=C(N/N=C/c1ccc(O)c2ncccc12)c1ccccc1 [Compound 5, N′-((8-hydroxyquinolin-5-yl)methylene)benzohydrazide]	56 µM	> 100 µM		
O=Cc1ccc([N+](=O)[O-])o1 [Compound 41, reference compound]	12 µM	78 µM		
O=C(N/N=C/c1cccc2ccccc12)c1ccccc1 [Compound 34, N′-(naphthalen-1-ylmethylene)benzohydrazide]	> 100 µM	> 100 µM		
O=[N+]([O-])c1ccc(O)c2ncccc12 [Nitroxoline, reference compound]	2.5 µM	50 µM		
O=C(N/N=C/c1ccc(O)c2ncccc12)c1cccs1 [Compound 3, N′-((8-hydroxyquinolin-5-yl)methylene)thiophene-2-carbohydrazide]	74 µM	65 µM		
O=C(N/N=C/c1ccc(O)c2ncccc12)c1ccc(O)cc1 [Compound 7, 4-hydroxy-N′-((8-hydroxyquinolin-5-yl)methylene)benzohydrazide]	71 µM	43 µM		
O=C(N/N=C/c1ccc([N+](=O)[O-])o1)c1ccc(O)cc1 [Nifuroxazide, reference compound]	> 100 µM	> 100 µM		
O=C(N/N=C/c1ccc(O)cc1)c1ccccc1 [Compound 36, N′-(4-hydroxybenzylidene)benzohydrazide]	> 100 µM	> 100 µM		
COc1ccc(C(=O)N/N=C/c2ccccc2)cc1 [Compound 37, N′-benzylidene-4-methoxybenzohydrazide]	> 100 µM	> 100 µM		
CCOc1ccc(S(=O)(=O)Nc2ccc(C(=O)N/N=C/c3ccc(O)c4ncccc34)cc2)cc1 [Compound 15, 4-ethoxy-N-(4-(2-((8-hydroxyquinolin-5-yl)methylene)hydrazine-1-carbonyl)phenyl)benzenesulfonamide]	> 100 µM	6 µM		
COc1ccc(C(=O)NN)cc1 [Compound 42, reference compound]	> 100 µM	> 100 µM		
O=C1CN(/N=C/c2ccc([N+](=O)[O-])o2)C(=O)N1 [Nitrofurantoin, reference compound]	> 100 µM			
O=C(N/N=C/c1ccc([N+](=O)[O-])o1)c1ccccc1 [Compound 18, N′-((5-nitrofuran-2-yl)methylene)benzohydrazide]	> 100 µM			
O=C(N/N=C/c1ccc([N+](=O)[O-])o1)c1ccccc1Oc1ccccc1 [Compound 23, N′-((5-nitrofuran-2-yl)methylene)-2-phenoxybenzohydrazide]	> 100 µM			
